In patent publication EP4624471A1, “PKMYT1 INHIBITOR, PREPARATION METHOD THEREFOR, AND PHARMACEUTICAL COMPOSITION AND USE THEREOF” (Shanghai Qilu Pharmaceutical Research and Development …, priority 2022, dated 2024):
Read-outs that look alike come from different tables or passages of the source.

Target: T1, PKMYT1 enzyme (Homo sapiens, UniProt Q99640)
T1 construct: purchased Thermo Scientific A33387
T1 sequence (Q99640 1-499): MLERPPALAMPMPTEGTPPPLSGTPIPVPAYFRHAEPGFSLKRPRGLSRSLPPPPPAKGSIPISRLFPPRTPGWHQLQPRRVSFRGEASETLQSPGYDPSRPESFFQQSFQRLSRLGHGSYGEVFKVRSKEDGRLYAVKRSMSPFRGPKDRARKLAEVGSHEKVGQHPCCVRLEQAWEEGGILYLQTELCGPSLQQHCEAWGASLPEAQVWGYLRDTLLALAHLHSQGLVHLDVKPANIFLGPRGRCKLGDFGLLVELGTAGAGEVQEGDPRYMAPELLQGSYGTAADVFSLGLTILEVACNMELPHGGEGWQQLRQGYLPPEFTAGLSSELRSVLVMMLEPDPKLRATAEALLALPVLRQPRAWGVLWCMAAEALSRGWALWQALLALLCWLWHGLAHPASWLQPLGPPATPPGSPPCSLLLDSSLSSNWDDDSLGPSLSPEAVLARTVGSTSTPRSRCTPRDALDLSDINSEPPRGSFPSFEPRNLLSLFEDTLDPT
Test: PKMYT1 enzyme inhibition activity, ADP-GLO method
Type: biochemical

[1] = read-out: ADP-GLO IC50; PKMYT1 enzyme 10 nM, ATP 5 µM, 37°C 90 minutes
[2] = PKMYT1 enzyme 10 nM, ATP 5 µM, 37°C 90 minutes; read-out: ADP-GLO IC50

Row | IC50 [1] [nM] | Compound | IC50 [2] [nM]
1 | 2.22 | Cc1ccc(O)c(C)c1-n1c(N)c(C(N)=O)c2cc3c(nc21)CCO3 (atropisomer, axis not shown) [Example 190.2] | 
2 |  | Cc1cc2c(C(N)=O)c(N)n(-c3c(C)c(C)cc(O)c3C)c2nc1C [Example 53, 2-Amino-1-(3-hydroxy-2,5,6-trimethylphenyl)-5,6-dimethyl-1H-pyrrolo[2,3-b]pyridine-3-carboxamide] | 194
3 |  | Cc1ccc(O)c(C)c1-n1c(N)c(C(N)=O)c2c3c(c(C)nc21)OCC3 [Example 187] | 43.5
4 |  | Cc1cc(F)c(O)c(C)c1-n1c(N)c(C(N)=O)c2cc(C3=CCOCC3)c(C)nc21 (atropisomer, axis not shown) [Example 175] | 4.8
5 |  | Cc1cc(F)c(O)c(C)c1-n1c(N)c(C(N)=O)c2cc(C3CCOCC3)c(C)nc21 (atropisomer, axis not shown) [Example 163] | 23.4
6 |  | CCc1cc2c(C(N)=O)c(N)n(-c3c(C)cc(F)c(O)c3C)c2nc1C (single isomer, unassigned) [Example 143.1] | 20
7 |  | Cc1ccc(O)c(C)c1-n1c(N)c(C(N)=O)c2cnccc21 [Example 30, 2-Amino-1-(3-hydroxy-2,6-dimethylphenyl)-1H-pyrrolo[3,2-c]pyridine-3-carboxamide] | 13.7
8 |  | Cc1nc(Cl)c2c(C(N)=O)c(N)n(-c3c(C)ccc(O)c3C)c2n1 [Example 28, 6-Amino-4-chloro-7-(3-hydroxy-2,6-dimethylphenyl)-2-methyl-7H-pyrrolo[2,3-d]pyrimidine-5-carboxamide] | 13.8
9 |  | Cc1cc2c(cn1)c(C(N)=O)c(N)n2-c1c(C)ccc(O)c1C [Example 31, 2-Amino-1-(3-hydroxy-2,6-dimethylphenyl)-6-methyl-1H-pyrrolo[3,2-c]pyridine-3-carboxamide] | 11.1
10 |  | COC(C)(C)c1cc2c(C(N)=O)c(N)n(-c3c(C)cc(F)c(O)c3C)c2nc1C [Example 171] | 26.8
11 |  | Cc1cc2c(C(N)=O)c(N)n(-c3c(C)cc(F)c(O)c3C)c2nc1Cl [Example 74] | 7.11
12 |  | CCCN(CC)c1ncc2c(C(N)=O)c(N)n(-c3c(C)ccc(O)c3C)c2n1 [Example 83] | 41.8
13 |  | CCc1cnc2c(c1)c(C(N)=O)c(N)n2-c1c(C)cc(F)c(O)c1C [Example 140] | 7.73
14 |  | Cc1cc2c(C(N)=O)c(N)n(-c3c(C)c(O)c(F)c(F)c3C)c2nc1C [Example 54] | 17.5
15 |  | Cc1cc(F)c(O)c(C)c1-n1c(N)c(C(N)=O)c2cc(CC(C)C)cnc21 [Example 147] | 13.6
16 |  | Cc1cc(F)c(O)c(C)c1-n1c(N)c(C(N)=O)c2cc3c(nc21)CCCC3 (atropisomer, axis not shown) [Example 177.2] | 8.15
17 |  | Cc1ccc(O)c(C)c1-n1c(N)c(C(N)=O)c2cncnc21 [Example 45, 6-Amino-7-(3-hydroxy-2,6-dimethylphenyl)-7H-pyrrolo[2,3-d]pyrimidine-5-carboxamide] | 10.8
18 |  | Cc1cc(F)c(O)c(C)c1-n1c(N)c(C(N)=O)c2cc(C(C)(C)O)cnc21 [Example 145] | 24.3
19 |  | Cc1ncc2c(C(N)=O)c(N)n(-c3c(C)c(O)cc(F)c3C)c2n1 (racemic) [Example 63] | 5.14
20 |  | CCN(CC)c1ncc2c(C(N)=O)c(N)n(-c3c(C)ccc(O)c3C)c2n1 [Example 17, 6-Amino-2-(diethylamino)-7-(3-hydroxy-2,6-dimethylphenyl)-7H-pyrrolo[2,3-d]pyrimidine-5-carboxamide] | 71.5
21 |  | Cc1cc(F)c(O)c(C)c1-n1c(N)c(C(N)=O)c2cc(N3CCC3)c(C)nc21 (racemic) [Example 173] | 7.68
22 |  | Cc1ccc(O)c(C)c1-n1c(N)c(C(N)=O)c2c(F)nc(C)c(F)c21 [Example 72] | 9.72

Row | IC50 [1] [nM] | Compound | IC50 [2] [nM]
23 |  | [2H]C([2H])([2H])c1nc2c(cc1C(F)(F)F)c(C(N)=O)c(N)n2-c1c(C)cc(F)c(O)c1C (atropisomer, axis not shown) [Example 194.1] | 5.3
24 |  | Cc1cc(F)c(O)c(C)c1-n1c(N)c(C(N)=O)c2cc(S(C)(=O)=O)c(C)nc21 [Example 168] | 4.92
25 |  | Cc1cc2c(C(N)=O)c(N)n(-c3c(C)cc(F)c(O)c3C)c2nc1C [Example 23, 2-Amino-1-(4-fluoro-3-hydroxy-2,6-dimethylphenyl)-5,6-dimethyl-1H-pyrrolo[2,3-b]pyridine-3-carboxamide] | 8.58
26 |  | CC(C)=Cc1ncc2c(C(N)=O)c(N)n(-c3c(C)ccc(O)c3C)c2n1 [Example 42, 6-Amino-7-(3-hydroxy-2,6-dimethylphenyl)-2-(2-methylprop-1-en-1-yl)-7H-pyrrolo[2,3-d]pyrimidine-5-carboxamide] | 6.62
27 |  | Cc1cc2c(C(N)=O)c(N)n(-c3c(C)c(O)cc(Cl)c3C)c2nc1C [Example 48, 2-Amino-1-(3-chloro-5-hydroxy-2,6-dimethylphenyl)-5,6-dimethyl-1H-pyrrolo[2,3-b]nicotinamide] | 36.8
28 |  | Cc1ccc(O)c(C)c1-n1c(N)c(C(N)=O)c2cnc(Br)nc21 [Example 7, 6-Amino-2-bromo-7-(3-hydroxy-2,6-dimethylphenyl)-7H-pyrrolo[2,3-d]pyrimidine-5-carboxamide] | 9.41
29 |  | Cc1cc(F)c(O)c(C)c1-n1c(N)c(C(N)=O)c2cc(Cl)c(C)nc21 (racemic) [Example 60] | 4.31
30 |  | Cc1ccc(O)c(C)c1-n1c(N)c(C(N)=O)c2cnc(C3=CCOCC3)nc21 [Example 16, 6-Amino-2-(3,6-dihydro-2H-pyran-4-yl)-7-(3-hydroxy-2,6-dimethylphenyl)-7H-pyrrolo[2,3-d]pyrimidine-5-carboxamide] | 11.7
31 |  | CCc1nc(C)nc2c1c(C(N)=O)c(N)n2-c1c(C)cc(F)c(O)c1C [Example 67] | 54.6
32 |  | C=Cc1ncc2c(C(N)=O)c(N)n(-c3c(C)ccc(O)c3C)c2n1 [Example 6, 6-Amino-7-(3-hydroxy-2,6-dimethylphenyl)-2-vinyl-7H-pyrrolo[2,3-d]pyrimidine-5-carboxamide] | 10.1
33 |  | CCCc1ncc2c(C(N)=O)c(N)n(-c3c(C)ccc(O)c3C)c2n1 [Example 87] | 3.35
34 | 4.93 | Cc1ccc(O)c(C)c1-n1c(N)c(C(N)=O)c2cc3c(nc21)CCO3 (racemic) [Example 190] | 
35 |  | COc1nc2c(cc1C)c(C(N)=O)c(N)n2-c1c(C)cc(F)c(O)c1C [Example 167] | 22
36 |  | Cc1ccc(O)c(C)c1-n1c(N)c(C(N)=O)c2c3cnccc3c(C)cc21 (racemic) [Example 189, 8-amino-7-(3-hydroxy-2,6-dimethylphenyl)-S-methyl-7H-pyrrolo[2,3-h]isoquinoline-9-carboxamide] | 5
37 |  | CCc1nc(C)nc2c1c(C(N)=O)c(N)n2-c1c(C)c(O)cc(F)c1C [Example 61] | 38.6
38 |  | Cc1cnc2c(c1)c(C(N)=O)c(N)n2-c1c(C)c(O)cc(F)c1C [Example 89] | 3
39 |  | CCc1nc(C)nc2c1c(C(N)=O)c(N)n2-c1c(C)ccc(O)c1C (racemic) [Example 66] | 22.5
40 |  | Cc1ccc(O)c(C)c1-n1c(N)c(C(N)=O)c2cnc(C3CC3)nc21 [Example 41, 6-Amino-2-cyclopropyl-7-(3-hydroxy-2,6-dimethylphenyl)-7H-pyrrolo[2,3-d]pyrimidine-5-carboxamide] | 11.2
41 |  | Cc1ccc(O)c(C)c1-n1c(N)c(C(N)=O)c2cc3c(nc21)OC(F)(F)O3 [Example 178] | 15.5
42 |  | Cc1ccc(O)c(C)c1-n1c(N)c(C(N)=O)c2cnc(CC(C)C)nc21 [Example 57, 6-Amino-7-(3-hydroxy-2,6-dimethylphenyl)-2-isobutyl-7H-pyrrolo[2,3-d]pyrimidine-5-carboxamide] | 3.04
43 |  | Cc1ccc(O)c(C)c1-n1c(N)c(C(N)=O)c2cnc(CCC3CC3)nc21 [Example 86] | 5.47
44 | 8.23 | Cc1ccc(O)c(C)c1-n1c(N)c(C(N)=O)c2cnc(/C=C/C3CC3)nc21 [Example 78] | 
